Results from PMC9770967, “Native holdup (nHU) to measure binding affinities from cell extracts” (Science Advances, 2022).
Each block holds one compound with its values, some of them ahead of it. *1 amine or outer side, *2 acyl side, *3 side chain or, on linkers, in order; H or OH if unused. Where a SMILES comes first, the peptide text is derived from it. The star is where a group is joined. X1 = O=C(CCCC[C@@H]1SC[C@@H]2NC(=O)N[C@@H]21)NCCCOCCOCCOCCCN*; Suc = O=C(CCC(=O)[*:2])[*:1]

Key:
[1] = biological target: TX1BP3_PDZ; assay: nHU-MS, TX1BP3_PDZ (TAX1BP3) bait, total Jurkat extracts (Exploris MS); type: binding, human
Source text: (§1) To further establish the repeatability and robustness of the nHU-MS assay, we repeated the experiments using a different mass spectrometer and six different PDZ domain baits taken from SCRIB (PDZ_1 and PDZ_2), discs large MAGUK scaffold protein 1 (DLG1, PDZ_1, and PDZ_2), Tax1 binding protein 3 (TAX1BP3), and SNX27 (fig. S3B and table S1). […] Of the studied baits, the PDZ domain of SNX27 turned out to be the most promiscuous with 103 statistically significant interaction partners (while 180 SNX27 binding partners were identified in total on the basis of the three independent nHU-MS experiments).
(§2) For saturating streptavidin resin with biotinylated peptides or biotin, 50 μl of streptavidin resin was mixed with biotin or peptide at 40 to 60 μM concentration in 6 to 6.5 resin volume for 60 min. To saturate streptavidin resin with biotinylated proteins, 50 μl of streptavidin resin (Streptavidin Sepharose High Performance, Cytiva) was mixed with biotinylated MBP or MBP-PDZ at 40 to 50 μM concentration in 20× resin volume for 60 min. After saturation, resins were washed a single time [10 resin volume, holdup buffer: 50 mM tris (pH 7.5), 300 mM NaCl, and 1 mM TCEP, 0.22-μm filtered] and were depleted with biotin (10 resin volume, 10 min, holdup buffer supplemented with 100 μM biotin). Last, resins were washed two times (10 resin volume, holdup buffer).
(§3) For single-point nHU experiments carried out at ~10 μM bait concentration, 50 μl of saturated streptavidin resin was mixed with 200 μl of cell lysate (2 mg/ml). Titration experiments were carried out by mixing control and bait-saturated resin and keeping the total resin volume constant; e.g., ~5 μM bait concentration can be achieved by mixing 25 μl of bait-saturated streptavidin resin with 25 μl of control resin and 200 μl of cell lysate (2 mg/ml). Control and bait-saturated resins were prepared in larger amounts, and a serial dilution was prepared with these presaturated resins to achieve different resin ratios.
(§4) Unless specified elswhere, the nHU mixture was incubated at 4°C for 2 hours. After the incubation ended, the resin was separated from the supernatant by a brief centrifugation (15 s, 2000 g). Then, half of the supernatant was removed by pipetting without any delay to avoid any resin contamination; e.g., 100 μl of supernatant is collected if 200 μl of cell lysate was used as analyte. Alternatively, the supernatant can be centrifuged an additional time to clarify it further, removing any possible resin contamination. In principle, the separation of the supernatant should be as fast as possible since any delay can perturb the equilibrium. […] Alternatively, the resin can be separated from the supernatant using filter plates (e.g., various products of Millipore, Burlington, MA) or spin columns (e.g., Pierce spin cups—cellulose acetate filter from Thermo Fisher Scientific, Waltham, MA) to achieve faster separation.
(§5) The nHU samples were precipitated with trichloroacetic acid (TCA) 20% overnight at 4°C and centrifuged at 14,000 rpm for 10 min at 4°C. The protein pellets were washed twice with 1 ml of cold acetone and air-dried. The protein extracts were solubilized in 8 M urea, reduced with 5 mM TCEP for 30 min, and alkylated with 10 mM iodoacetamide for 30 min in the dark. Double digestion was performed at 37°C with 500 ng of endoproteinase Lys-C (Wako, Richmond, USA) for 4 hours, followed by fourfold dilution and an overnight digestion with 500 ng of trypsin (Promega, Charbonnieres les Bains, France). Peptide mixtures were then desalted on a C18 spin-column and dried on a speed vacuum.
(§6) Samples were analyzed using an Ultimate 3000 nano-RSLC coupled in line via a nano-electrospray ionization source, with an LTQ-Orbitrap ELITE mass spectrometer (Thermo Fisher Scientific, San Jose, CA) or with the Orbitrap Exploris 480 mass spectrometer (Thermo Fisher Scientific, Bremen, Germany) equipped with a high field asymmetric ion mobility spectrometry (FAIMS) module. […]

[2] = biological target: SCRIB_PDZ_1; assay: nHU-MS, SCRIB_PDZ_1 bait, total Jurkat extracts (Exploris MS); type: binding, human
Source text: as §1, §2, §3, §4, §5, §6

[3] = biological target: SNX27_PDZ; assay: nHU-MS, SNX27_PDZ bait, total Jurkat extracts, series 2 (Exploris MS); type: binding, human
Source text: as §1, §2, §3, §4, §5, §6

[4] = biological target: SNX27_PDZ; assay: nHU-MS, SNX27_PDZ bait, total SH-SY5Y extracts; type: binding, human
Protocol: The empty His6-AviTag-MBP-TEV vector was used to produce biotinylated MBP for control experiments. Proteins were coexpressed with BirA biotin ligase (PET21a-BirA, Addgene, no. 20857) in Escherichia coli BL21(DE3) cells. At isopropyl-β-D-thiogalactopyranoside (IPTG) induction (1 mM IPTG at 18°C overnight), 50 μM biotin was added to the media. Harvested cells were lysed in a buffer containing 50 mM tris (pH 7.5), 150 to 300 mM NaCl, 50 μM biotin, 2 mM β-mercaptoethanol, cOmplete EDTA-free protease inhibitor cocktail (Roche, Basel, Switzerland), 1% Triton X-100, and trace amount of deoxyribonuclease, ribonuclease, and lysozyme. Lysates were frozen at −20°C before further purification steps. Lysates were sonicated and centrifuged for clarification. Expressed proteins were captured on in-house prepacked Ni-IDA (Protino Ni-IDA Resin, Macherey-Nagel, Duren, Germany) columns and were washed with at least 10 column volumes of cold wash buffer [50 mM tris (pH 7.5), 150 mM NaCl, and 2 mM β-mercaptoethanol] before elution with 250 mM imidazole. The Ni elution was collected directly on a preequilibrated amylose column (amylose high flow resin, New England Biolabs, Ipswich, MA). Amylose column was washed with 5 column volumes of cold wash buffer before fractionated elution in a buffer containing 25 mM Hepes (pH 7.5), 150 mM NaCl, 1 mM TCEP, 10% glycerol, 5 mM maltose, and cOmplete EDTA-free protease inhibitor cocktail. The concentration of proteins was determined by their ultraviolet absorption at 280 nm before aliquots were snap-frozen in liquid nitrogen and stored at −80°C.
as §2, §3
as §4, with “separation. […]” for “separation.”

[5] = tested on: DLG1_PDZ_1; assay: nHU-MS, DLG1_PDZ_1 bait, total Jurkat extracts (Exploris MS); type: binding, human
Source text: as §1, §2, §3, §4, §5, §6

[6] = tested on: DLG1_PDZ_2; assay: nHU-MS, DLG1_PDZ_2 bait, total Jurkat extracts (Exploris MS); type: binding, human; conditions: Jurkat extract
Source text: as §1, §2, §3, §4, §5, §6

[7] = tested on: SCRIB_PDZ_2; assay: nHU-MS, SCRIB_PDZ_2 bait, total Jurkat extracts (Exploris MS); type: binding, human; conditions: nHU-MS
Source text: as §1, §2, §3, §4, §5, §6

[8] = biological target: SCRIB PDZ1; conditions: fragmentomic, isolated PDZ domain; cited from earlier work
Source text: Supplement sciadv.ade3828_table_s1.zip/sciadv.ade3828_table_s1.xlsx, sheet "nHU-WB_SP" | column: Domain-motif fragmentomic affinities (ProfAff)

[9] = biological target: SCRIB PDZ3; conditions: fragmentomic, isolated PDZ domain; cited from earlier work
Source text: Supplement sciadv.ade3828_table_s1.zip/sciadv.ade3828_table_s1.xlsx, sheet "nHU-WB_SP"

[10] = biological target: isolated PDZ domain of SNX27; conditions: 10-mer PBM peptide vs isolated PDZ domain, holdup; cited from earlier work

pKapp (nHU-MS) ([1]; TX1BP3_PDZ&Jurkat (Exploris)): 4.78
pKapp (nHU-MS) ([2]; SCRIB_PDZ_1&Jurkat (Exploris)): 4.749
pKapp (nHU-MS) ([3]; SNX27_PDZ&Jurkat (Exploris)): 4.78
Compound: WDR48

pKapp_HU_not_filtered ([4]; apparent, Eq. 2, not filtered for significance): 4.711
pKapp_significant_binders_HU ([4]; apparent, Eq. 2, significant binders (1 σ, P < 0.05)): 4.711
Compound: KARS1: Lysine--tRNA ligase
BI_HU ([4]; n = 6): 0.3389

pKd ([5]; DLG1_PDZ_1 bait, total Jurkat extract, not filtered for significance (pKdsign N/D)): 3.996
Compound: PIGBOS1: Protein PIGBOS1 (MFRRLTFAQLLFATVLGIAGGVYIFQPVFEQYAKDQKELKEKMQLVQESEEKKS; UniProt A0A0B4J2F0 1-54, looked up)
Ratio DLG1_1/MBP ([5]; DLG1_PDZ_1, total Jurkat extract): 0.91
BI ([5]; DLG1_PDZ_1 bait vs MBP, total Jurkat extract): 0.08999
Difference log2 ([5]; DLG1_PDZ_1 vs MBP, total Jurkat extract): -0.136
Difference log2 ([6]; DLG1_PDZ_2 bait vs MBP): 0.04834
Ratio DLG1_2/MBP ([6]; DLG1_PDZ_2 bait vs MBP): 1.034
BI ([6]; DLG1_PDZ_2 bait): -0.03407
Ratio SCRIB_2/MBP ([7]; SCRIB_PDZ_2, total Jurkat extract): 1.081
BI ([7]; SCRIB_PDZ_2 bait vs MBP, total Jurkat extract): -0.08098
Difference log2 ([7]; SCRIB_PDZ_2 vs MBP, total Jurkat extract): 0.1123
BI ([1]; nHU-MS, TX1BP3_PDZ bait vs MBP, total Jurkat extract): -0.09136
Difference log2 ([1]; nHU-MS, TX1BP3_PDZ vs MBP, total Jurkat extract): 0.1261
Ratio TX1BP3/MBP ([1]; nHU-MS, TX1BP3_PDZ, total Jurkat extract): 1.091
Ratio SCRIB_1/MBP ([2]; nHU-MS, SCRIB_PDZ_1, total Jurkat extract): 1.118
BI ([2]; nHU-MS, SCRIB_PDZ_1 bait vs MBP, total Jurkat extract): -0.1177
Difference log2 ([2]; nHU-MS, SCRIB_PDZ_1 vs MBP, total Jurkat extract): 0.1605
BI ([3]; Jurkat, series 2, n = 3): -0.08774
Difference log2 ([3]; Jurkat, series 2, n = 3): 0.1213
Ratio SNX27/MBP ([3]; Jurkat, series 2, n = 3): 1.088

Compound: CC[C@H](C)[C@H](NC(=O)[C@H](CCC(N)=O)NC(=O)[C@H](CO)NC(=O)[C@@H](NC(=O)[C@H](CCC(N)=O)NC(=O)[C@@H](NC(=O)[C@H](CC(N)=O)NC(=O)[C@H](CCCNC(=N)N)NC(=O)[C@@H]1CCCN1C(=O)[C@H](CC(=O)O)NC(=O)CCC(=O)NCCCOCCOCCOCCCNC(=O)CCCC[C@@H]1SC[C@@H]2NC(=O)N[C@@H]21)[C@@H](C)O)[C@@H](C)O)C(=O)O [ABRAXAS2] ({X1-Suc}-DPRNTQTSQI-OH; C-terminus assumed)
pKd_PDZ1 [8]: 4.02
pKd_PDZ3 [9]: 4.01
pKd (fragmentomic affinity) [10]: 4.04
